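Grown in 96-well plates, cells were treated for 48 hours with each compound at five concentrations. Insufficient inhibition: endpoint recorded as highest concentration tested. GI50 = concentration required for 50% inhibition of growth.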 Active and inactive are the calls of the source. No stated cut-off is given here; in the data, active = GI50 up to about 1.1 µM and inactive = higher.
What was measured:
Test in all cases: DTP human tumour cell line panel, 48 h
DU-145 = system: DU-145
RPMI-8226 = system: RPMI-8226
HCC 2998 = system: HCC 2998
SW-620 = system: SW-620
K562 = system: K562
UACC-257 = system: UACC-257
OVCAR-4 = system: OVCAR-4
786-0 = system: 786-0
HCT-116 = system: HCT-116
SK-MEL-28 = system: SK-MEL-28
MDA-N = system: MDA-N
LOX IMVI = system: LOX IMVI
PC-3 = system: PC-3
ACHN = system: ACHN
NCI/ADR-RES = system: NCI/ADR-RES
SNB-19 = system: SNB-19
SK-MEL-5 = system: SK-MEL-5
Hs-578T = system: Hs-578T
A498 = system: A498
CAKI-1 = system: CAKI-1

Measured: GI50

CCc1nnc(CC)n1N1C(=O)CCC1=O
inactive: DU-145 > 100 µM | RPMI-8226 > 100 µM | HCC 2998 > 100 µM | SW-620 > 100 µM | K562 > 100 µM | UACC-257 > 100 µM | OVCAR-4 > 100 µM | 786-0 > 100 µM | HCT-116 > 100 µM | SK-MEL-28 > 100 µM | MDA-N > 100 µM | LOX IMVI > 100 µM | PC-3 > 100 µM | ACHN > 100 µM | NCI/ADR-RES > 100 µM | SNB-19 > 100 µM | SK-MEL-5 > 100 µM

CN(C)c1nc(NN)c2c(-c3ccccc3)c(-c3ccccc3)oc2n1
inactive: DU-145 > 100 µM | RPMI-8226 > 100 µM | HCC 2998 > 100 µM | SW-620 > 100 µM | K562 49 µM | UACC-257 > 100 µM | OVCAR-4 35.1 µM | 786-0 > 100 µM | HCT-116 > 100 µM | Hs-578T 45.8 µM | SK-MEL-28 > 100 µM | A498 > 100 µM | LOX IMVI > 100 µM | ACHN > 100 µM | NCI/ADR-RES > 100 µM | SNB-19 > 100 µM | CAKI-1 > 100 µM

CCN(CCN(CC)C(=O)Nc1ccccc1)C(=O)Nc1ccccc1
inactive: DU-145 > 100 µM | RPMI-8226 > 100 µM | HCC 2998 > 100 µM | SW-620 > 100 µM | K562 > 100 µM | UACC-257 > 100 µM | 786-0 > 100 µM | HCT-116 > 100 µM | Hs-578T > 100 µM | SK-MEL-28 > 100 µM | A498 > 100 µM | LOX IMVI > 100 µM | PC-3 > 100 µM | ACHN > 100 µM | NCI/ADR-RES > 100 µM | SNB-19 > 100 µM | SK-MEL-5 > 100 µM

COC1O[C@H]2[C@H]3[C@@H]1[C@@H](OS(=O)(=O)c1ccc(C)cc1)C(=O)N3C[C@H]2O (some centres not stated)
inactive: DU-145 > 100 µM | RPMI-8226 61.2 µM | HCC 2998 > 100 µM | SW-620 > 100 µM | K562 65.9 µM | UACC-257 > 100 µM | OVCAR-4 > 100 µM | 786-0 > 100 µM | HCT-116 > 100 µM | SK-MEL-28 > 100 µM | A498 > 100 µM | LOX IMVI > 100 µM | PC-3 81.8 µM | ACHN > 100 µM | NCI/ADR-RES > 100 µM | SNB-19 > 100 µM | CAKI-1 > 100 µM | SK-MEL-5 > 100 µM

CC(C)=C/C=C1/CS(=O)(=O)C=C1C
inactive: DU-145 > 100 µM | RPMI-8226 > 100 µM | HCC 2998 > 100 µM | SW-620 > 100 µM | K562 > 100 µM | UACC-257 > 100 µM | 786-0 > 100 µM | HCT-116 > 100 µM | SK-MEL-28 > 100 µM | A498 > 100 µM | MDA-N > 100 µM | LOX IMVI > 100 µM | PC-3 > 100 µM | ACHN > 100 µM | NCI/ADR-RES > 100 µM | SNB-19 > 100 µM | CAKI-1 > 100 µM | SK-MEL-5 > 100 µM

C#CCNC(=O)NCCCCC(NC(=O)OCc1ccccc1)C(=O)OCc1ccccc1 (configuration not stated)
inactive: RPMI-8226 21.2 µM | HCC 2998 37.9 µM | SW-620 72.8 µM | K562 > 66.2 µM | UACC-257 33.2 µM | OVCAR-4 > 78.3 µM | 786-0 > 58.1 µM | HCT-116 > 68.2 µM | SK-MEL-28 > 100 µM | A498 > 100 µM | LOX IMVI 39.1 µM | ACHN 27.7 µM | SNB-19 > 100 µM | CAKI-1 > 59.4 µM | SK-MEL-5 > 100 µM

COc1cc(C(O)C(=O)c2nc3ccc([N+](=O)[O-])cc3nc2O)ccc1O (configuration not stated)
inactive: RPMI-8226 77.3 µM | HCC 2998 74.1 µM | SW-620 > 100 µM | K562 57.1 µM | UACC-257 > 10 µM | OVCAR-4 > 100 µM | 786-0 > 100 µM | HCT-116 > 100 µM | SK-MEL-28 26.4 µM | A498 34.6 µM | LOX IMVI 40.1 µM | ACHN 54.2 µM | SNB-19 > 100 µM | CAKI-1 > 100 µM | SK-MEL-5 81.1 µM

O=C(Nc1cc(Cl)c(Cl)cc1Cl)C(=O)C1C(=O)NC(=S)NC1=O
inactive: RPMI-8226 > 100 µM | HCC 2998 > 100 µM | SW-620 > 100 µM | K562 > 100 µM | UACC-257 > 100 µM | OVCAR-4 > 100 µM | 786-0 > 100 µM | HCT-116 > 100 µM | SK-MEL-28 > 100 µM | A498 > 100 µM | LOX IMVI > 100 µM | ACHN > 100 µM | SNB-19 > 100 µM | CAKI-1 > 100 µM | SK-MEL-5 > 100 µM

Reference: ChEMBL document CHEMBL1201862, “PubChem BioAssay data set” (2004)
